Data as given in patent publication US5317022A, “Pharmaceutical composition and use” (priority 1991, dated 1994).
Entries after “also recorded” stand apart in the source; their conditions may differ. Where two headings read alike, the source gives them in different places.

Legend:
rat [1] = assay: analgetic effect, tail flick (rat); assay type: in vivo
rat [2] = settings: dose giving 100% activity
mice [3] = assay: physical dependency, jumping test on mice; settings: treatment 7 x 100 mg/kg ip.; naloxone 50 mg/kg ip.
rats [4] = assay: sedative (narcosis potentiating) effect, Inactine base narcotic, rats; assay type: in vivo
Method: Inactine (35 mg/kg) was used as a base narcotic.
*ED500 % = dose increasing narcosis to five times the control.

mice [5] = assay: analgetic effect, writhing test (mice); assay type: in vivo
rat [6] = assay: analgetic effect, hot plate (rat); assay type: in vivo
[7] = target: (^3 H)naloxone binding sites; assay: competition binding assay with (3H)naloxone on rat brain membranes; settings: membranes incubated with (3H)naloxone 1 nM and increasing ligand concentrations; read-out: Affinity constants (Ki nM) in competition assays
Method: (§1) Membrane preparation: A crude membrane fraction from rat brain (PVG/C strain) was prepared [Mol. Pharm.11 (1975) 340-351 and the protein content was defined [Anal. Biochem. 72(1976) 248-254).
(§2) The membrane suspension (200-400 μg protein) was incubated with the specific radioligand for 1 hour on ice. Incubations were terminated by rapid filtration under vacuo followed by washing with ice cold tris HCl buffer (50 mM, pH 7,4). Radioactivity was measured in a toluene based scintillation mixture on a LKB Minibeta Liquid Scintillation Spectrophotometer. Nonspecific binding was defined in the presence of 10 μM unlabeled naloxone. All assays were performed in triplicate and repeated several times. Ki values were determined from equilibrium experiments and calculated with the Tshang-Prusov equation. The data were evaluated using the Ligand program [Anal. Biol. Chem. 107 (1980) 220-239](Data shown on Table III/1).

mice [8] = settings: in vivo
rabbits [9] = assay: effects on respiration on conscious rabbits (III.5, Marey-drum)
Method: Investigation was carried out on conscious rabbits of both sexes and of 3-4 kg weight by way of a Marey-drum. Frequency and amplitude of respiration were quantitatively evaluated.

rat [10] = assay: animal or person; settings: read-out: algolyt. test (rat) 100% activity
rabbits [11] = assay: effect on respiration on conscious rabbits (III.6, type A/B/C tests); assay type: in vivo; set-up: resp. change ampl.: unit not given here
Method: The method as described above in Example III.5 was used on conscious rabbits of 2,5-3 kg weight. Registration was continued for 3-4 hours. The samples were injected under the skin of the neck and the respiration parameters were registered at intervals of 10 minutes.

rats [12] = system: rats
[13] = target: (^3 H)naloxone binding sites; assay: wash-resistant binding of (3H)naloxone, rat brain membranes; settings: preincubated with (3H)naloxone 1 nM and test compound; remaining specific binding after several washings; average of 2-4 data; compound.HCl; read-out: Ki (nM), affinity constants
Method: as §1, §2
After preincubation a thorough washing was performed. [Life Sci. 32 (1983) 2777-2784]. Control values are represented by the specific binding of (3H)naloxone to membranes preincubated with a buffer and treated in the same way. Heterologous displacement experiments were used to evaluate the affinity of the investigated compounds for (^3 H)naloxone binding sites.

[14] = s.c. on rats, Inactine 35 mg/kg, dose as base
[15] = type A: OH 0.25 mg/kg s.c., 20 min
[16] = type A: OH 0.25 mg/kg s.c., 30 min
[17] = type A: OH 0.25 mg/kg s.c., then morphine 5 mg/kg s.c., 10 min
[18] = type C: OH 0.25 mg/kg with morphine 5 mg/kg s.c., 20 min
[19] = Rattus norvegicus, read-out: tail flick (rat) ED50
[20] = Mus musculus, read-out: writhing test (mice) ED50
[21] = Rattus norvegicus, read-out: hot plate (rat) ED50
[22] = type A: OP 0.1 mg/kg s.c., 10 min
[23] = type A: OP 0.5 mg/kg s.c., 10 min
[24] = type A: OP 0.5 mg/kg s.c., then morphine 5 mg/kg s.c., 10 min
[25] = type A: OP 0.5 mg/kg s.c., then morphine 5 mg/kg s.c., 60 min
[26] = type B: morphine 5 mg/kg s.c., then OP 1.0 mg/kg s.c., 20 min
[27] = type B: morphine 5 mg/kg s.c., then OP 1.0 mg/kg s.c., 30 min
[28] = type C: OP 0.25 mg/kg with morphine 5 mg/kg s.c., 20 min
[29] = type C: OP 0.25 mg/kg with morphine 5 mg/kg s.c., 30 min
[30] = type C: OP 0.25 mg/kg with morphine 10 mg/kg s.c., 10 min
[31] = type C: OP 0.25 mg/kg with morphine 20 mg/kg s.c., 30 min
[32] = OS 0.025 mg/kg s.c. (20 min), morphine 5 mg/kg s.c., 20 min
[33] = OS 0.025 mg/kg s.c. (30 min), morphine 5 mg/kg s.c., 30 min
[34] = OS 0.025 mg/kg s.c., 10 min (before morphine)
[35] = OS 0.50 mg/kg s.c. (30 min), morphine 20 mg/kg s.c., 20 min

CN1CC[C@]23c4c5ccc(O)c4O[C@H]2[C@@H](O)C=C[C@H]3[C@H]1C5 [Morphine, reference compound]
tail flick (rat) ED50 (rat [1]; rat): 1,8 mg/kg
algolyt. test (rat) 100% activity (rat [2]): 15,0 mg/kg
% relation of jumping animals (mice [3]): 100%
number of jumps/mouse (average) (mice [3]): 34,5
ED500 % (dose increasing narcosis to five times the control) (rats [4]; [14]): 1,75 mg/kg
writhing test (mice) ED50 (mice [5]; mice): 0,45 mg/kg
hot plate (rat) ED50 (rat [6]; rat): 3,6 mg/kg

COc1ccc2c3c1O[C@H]1C(=NN)CC[C@@]4(O)[C@@H](C2)N(C)CC[C@]314 [Oxycodone hydrazone, 14-OH-DIHYDROCODEINONE-HYDRAZONE (TRANS)]
ED50 (rat [1]; Rattus norvegicus; read-out: tail flick (rat) ED50): 0.65 mg/kg
Ki [7]: 800 nM
ED500 % (dose increasing narcosis to five times the control) (rats [4]; rat, in vivo): 0,45 mg/kg
potentiation of Inactine narcosis (in words) (rats [4]; rat, in vivo): most effectively prolongated
ED50 (mice [5]; Mus musculus; read-out: writhing test (mice) ED50): 0.35 mg/kg
ED50 (rat [6]; Rattus norvegicus; read-out: hot plate (rat) ED50): 0.46 mg/kg
number of jumps/mouse (average) (mice [8]): 1,5
% relation of jumping animals (mice [8]; mouse): 50%
volume and frequency of respiration (in words) (rabbits [9]; 50 μg/kg dose): increases both the volume and the frequency of respiration
respiration effect (printed over two lines: slight reversion) (rabbits [9]; rabbit, in vivo): reversion
reversal of morphine respiratory depression (in words) (rabbits [9]; rabbit, in vivo): a partial reversal takes place
respiration frequency/min. (rabbits [9]; rabbit, in vivo, sc): .uparw.
respiration volume (rabbits [9]; rabbit, in vivo, sc): .uparw.
ED100 (rat [10]): 10 mg/kg
resp. change ampl. (rabbits [11]; [15]): +20
resp. change fr/min (rabbits [11]; [15]): +150
resp. change ampl. (rabbits [11]; [16]): +20
resp. change fr/min (rabbits [11]; [16]): +127
resp. change ampl. (rabbits [11]; [17]): -30
resp. change fr/min (rabbits [11]; [17]): -36
resp. change ampl. (rabbits [11]; [18]): +10
resp. change fr/min (rabbits [11]; [18]): +30

COc1ccc2c3c1O[C@H]1C(=O)CC[C@@]4(O)[C@@H](C2)N(C)CC[C@]314 [Oxycodone, reference compound]
tail flick (rat) ED50 (rat [1]; rat): 0,68 mg/kg
algolyt. test (rat) 100% activity (rat [2]): 2,2 mg/kg
ED500 % (dose increasing narcosis to five times the control) (rats [4]; [14]): 1,2 mg/kg
writhing test (mice) ED50 (mice [5]; mice): 0,45 mg/kg
hot plate (rat) ED50 (rat [6]; rat): 0.92 mg/kg
respiration effect (rabbits [9]; 10-2500 μg/kg i.v., s.c.): depression
respiration frequency/min. (rabbits [9]; 10-2500 μg/kg i.v., s.c.): .dwnarw.
respiration volume (rabbits [9]; 10-2500 μg/kg i.v., s.c.): .dwnarw.
influence on the respiratory depression effect of morphine (in words) (rabbits [9]; rabbit, in vivo): unambiguously potentiate the respiratory depression effect of morphine
respiratory depression by the compound alone (in words) (rabbits [9]; s.c., dihydrocodeinone 50-2500 μg/kg, oxycodone 10-2500 μ/kg): cause respiratory depression
change of morphine toxicity (in words) (rats [12]; administered together with morphine, s.c.): potentiate toxicity of morphine
Combination LD50 / morphine LD50 (rats [12]; test substance 10 mg/kg s.c.): 0,57

COc1ccc2c3c1O[C@H]1C(=NNc4ccccc4)CC[C@@]4(O)[C@@H](C2)N(C)CC[C@]314 [Oxycodone-phenylhydrazone, 14-OH-DIHYDROCODEINONE-PHENYLHYDRAZONE (CIS)]
ED50 (rat [1]; [19]): 1.2 mg/kg
Ki [7]: 1150 nM
ED500 % (dose increasing narcosis to five times the control) (rats [4]; rat, in vivo): 1,5 mg/kg
ED50 (mice [5]; [20]): 1.2 mg/kg
ED50 (rat [6]; [21]): 0.8 mg/kg
influence on the respiratory depression effect of morphine (in words) (rabbits [9]; rabbit, in vivo): partially antagonizes the effect of morphine
respiration effect (rabbits [9]; rabbit, in vivo, sc): no change; also recorded: slight stym
ED100 (rat [10]): 10 mg/kg
resp. change ampl. (rabbits [11]; [22]): +20
resp. change fr/min (rabbits [11]; [22]): +33
resp. change ampl. (rabbits [11]; [23]): 0
resp. change fr/min (rabbits [11]; [23]): +16
resp. change ampl. (rabbits [11]; [24]): -20
resp. change fr/min (rabbits [11]; [24]): -17
resp. change ampl. (rabbits [11]; [25]): 0
resp. change fr/min (rabbits [11]; [25]): 0
resp. change ampl. (rabbits [11]; [26]): +15
resp. change fr/min (rabbits [11]; [26]): -16
resp. change ampl. (rabbits [11]; [27]): +20
resp. change fr/min (rabbits [11]; [27]): -6
resp. change ampl. (rabbits [11]; [28]): +20
resp. change fr/min (rabbits [11]; [28]): +44
resp. change ampl. (rabbits [11]; [29]): +30
resp. change fr/min (rabbits [11]; [29]): +92
resp. change ampl. (rabbits [11]; [30]): +20
resp. change fr/min (rabbits [11]; [30]): +23
resp. change ampl. (rabbits [11]; [31]): 0
resp. change fr/min (rabbits [11]; [31]): -8
Ki [13]: 1150 nM

COc1ccc2c3c1O[C@H]1C(=NNC(N)=O)CC[C@@]4(O)[C@@H](C2)N(C)CC[C@]314 [Oxycodone-semicarbazone, 14-OH-DIHYDROCODEINONE-SEMICARBAZONE (TRANS)]
ED50 (rat [1]; [19]): 0.35 mg/kg
Ki [7]: 588 nM
ED500 % (dose increasing narcosis to five times the control) (rats [4]; rat, in vivo): 1,5 mg/kg
ED50 (mice [5]; [20]): 0.15 mg/kg
ED50 (rat [6]; [21]): 0.58 mg/kg
respiration effect (printed over two lines: morphine-inhibition) (rabbits [9]; rabbit, in vivo): inhibition
respiration frequency/min. (rabbits [9]; rabbit, in vivo): .uparw.
respiration volume (rabbits [9]; rabbit, in vivo): .uparw..dwnarw.
ED100 (rat [10]): 5 mg/kg
resp. change ampl. (rabbits [11]; OS 0.01 mg/kg s.c., 10 min): 0
resp. change fr/min (rabbits [11]; OS 0.01 mg/kg s.c., 10 min): +48
resp. change ampl. (rabbits [11]; OS 0.01 mg/kg s.c., 30 min): +20
resp. change fr/min (rabbits [11]; OS 0.01 mg/kg s.c., 30 min): +51
resp. change ampl. (rabbits [11]; [32]): -16
resp. change fr/min (rabbits [11]; [32]): +24
resp. change ampl. (rabbits [11]; [33]): -20
resp. change fr/min (rabbits [11]; [33]): +13
resp. change ampl. (rabbits [11]; [34]): +20
resp. change fr/min (rabbits [11]; [34]): +48
resp. change ampl. (rabbits [11]; OS 0.025 mg/kg s.c., 30 min): +20
resp. change fr/min (rabbits [11]; OS 0.025 mg/kg s.c., 30 min): +51
resp. change ampl. (rabbits [11]; OS 0.05 mg/kg s.c., 10 min): +75
resp. change fr/min (rabbits [11]; OS 0.05 mg/kg s.c., 10 min): +50
resp. change ampl. (rabbits [11]; [35]): 0
resp. change fr/min (rabbits [11]; [35]): +10
resp. change ampl. (rabbits [11]; OS 0.50 mg/kg s.c., 10 min): 0
resp. change fr/min (rabbits [11]; OS 0.50 mg/kg s.c., 10 min): +36
respiration number (in words) (rabbits [11]; small doses): considerably increase the respiration number
Ki [13]: 588 nM
